Here are results for eleven compounds from patent US11208421B2, “2-carboxypenam compound or salt thereof, pharmaceutical composition containing novel 2-carboxypenam compound or salt thereof, and applications thereof” (priority 2017, dated 2021).

Converted amounts (≈) assume the structure as drawn.

Assay type in all cases: cell-based
Assay [1] deals with Pseudomonas aeruginosa strain ATCC 27853. The experiment in a line: Antibacterial activity evaluation test (MIC), broth microdilution, strain ATCC 27853. Particulars: for MIC Pseudomonas aeruginosa strain ATCC 27853: cation-adjusted Mueller-Hinton medium supplemented with 20 M of apotransferrin, 35° C., 16 to 20 hours; for MIC: Pseudomonas aeruginosa, ATCC27853, read-out: MIC Pseudomonas aeruginosa strain ATCC 27853. Here is the method:
(§1) The minimum inhibitory concentration (MIC) was measured according to the Clinical and Laboratory Standards Institute (CLSI) standard method by using the following broth microdilution method.
(§2) As bacteria, a Pseudomonas aeruginosa strain ATCC 27853, a Pseudomonas aeruginosa AmpC derepression mutant strain S-3028, and a Pseudomonas aeruginosa IMP-1-producing strain S-2838 were used.
(§3) The Pseudomonas aeruginosa AmpC-derepression mutant strain S-3028 or the Pseudomonas aeruginosa IMP-1-producing strain S-2838 was cultured on a Mueller Hinton agar medium overnight, thereby preparing test bacterial cells. The obtained test bacterial cells were scraped off, suspended to yield 0.5 McFarland equivalence, and diluted 10-fold to obtain an inoculum. A cation-adjusted Mueller Hinton medium containing a test compound was inoculated with 0.0005 mL of the inoculum, and the cells were cultured at 35° C. for 16 to 20 hours. The minimum drug concentration at which the growth of bacteria was not visually observed was defined as MIC.
The MIC of the Pseudomonas aeruginosa ATCC strain 27853 was measured in the same manner as described above by using a cation-adjusted Mueller-Hinton medium supplemented with […] of apotransferrin as a final concentration.

For assay [2], the system named is Pseudomonas aeruginosa AmpC derepression mutant strain S-3028. The experiment in a line: Antibacterial activity evaluation test (MIC), broth microdilution, AmpC derepression mutant strain S-3028. To be noted: for MIC Pseudomonas aeruginosa strain S-3028: AmpC derepression mutant, cation-adjusted Mueller Hinton medium, 35° C., 16 to 20 hours; for MIC: Pseudomonas aeruginosa, read-out: MIC Pseudomonas aeruginosa strain S-3028. Here is the method:
as §1, §2, §3
On the technique in general: Broth dilution looks for growth in wells or tubes with falling amounts of substance.

For assay [3], the system named is Pseudomonas aeruginosa IMP-1-producing strain S-2838. The experiment in a line: Antibacterial activity evaluation test (MIC), broth microdilution, IMP-1-producing strain S-2838. Particulars: for MIC Pseudomonas aeruginosa strain S-2838: IMP-1-producing strain, cation-adjusted Mueller Hinton medium, 35° C., 16 to 20 hours; for MIC: Pseudomonas aeruginosa, read-out: MIC Pseudomonas aeruginosa strain S-2838. Here is the method: as §1, §2, §3

As for `CC(C)(O/N=C(\C(=O)N[C@@H]1C(=O)N2C[C@](SCCNC(=O)C(=O)c3ccc(O)c(O)c3Cl)(C(=O)O)S[C@H]12)c1csc(N)n1)C(=O)O` [Example 1, (3R,5R,6R)-6-((Z)-2-(2-aminothiazol-4-yl)-2-(((2-carboxypropan-2-yl)oxy)imino)acetamide)-3-((2-(2-(2-chloro-3,4-dihydroxyphenyl)-2-oxoacetamide)ethyl)thio)-7-oxo-4-thia-1-azabicyclo[3.2.0]heptane-3-carboxylic acid], the “MIC Pseudomonas aeruginosa strain ATCC 27853” value in assay [1] stood at 0.125 µg/mL (≈ 0.174 µM). For the same compound, the “MIC Pseudomonas aeruginosa strain S-3028” value in assay [2] turned out to be 128 µg/mL (≈ 178 µM). Moreover, the “MIC Pseudomonas aeruginosa strain S-2838” value in assay [3] was 2 µg/mL (≈ 2.79 µM).

For orientation: MIC means the least concentration at which growth counts as inhibited. Regarding `CC(C)(O/N=C(\C(=O)N[C@@H]1C(=O)N2C[C@](SCCNC(=O)/C(=N/NC(N)=O)c3ccc(O)c(O)c3Cl)(C(=O)O)S[C@H]12)c1csc(N)n1)C(=O)O` [Example 13, (3R,5R,6R)-6-((Z)-2-(2-aminothiazole-4-yl)-2-(((2-carboxypropan-2-yl)oxy)imino)acetamide)-3-((2-((E)-2-(2-carbamoylhydrazono)-2-(2-chloro-3,4-dihydroxyphenyl)acetamide)ethyl)thio)-7-oxo-4-thia-1-azabicyclo[3.2.0]heptane-3-carboxylic acid], the MIC in assay [1] was not above 0.0625 µg/mL; in assay [2], 16 µg/mL (≈ 20.7 µM); in assay [3] it was 8 µg/mL (≈ 10.3 µM).

With `CC(C)(O/N=C(\C(=O)N[C@@H]1C(=O)N2C[C@](SC3CN(C(=O)/C(=N\O)c4ccc(O)c(O)c4Cl)C3)(C(=O)O)SC12)c1csc(N)n1)C(=O)O` (stereo partly drawn) [Example 5, (3R,5R,6R)-6-((Z)-2-(2-aminothiazol-4-yl)-2-(((2-carboxypropan-2-yl)oxy)imino)acetamide)-3-((1-((Z)-2-(2-chloro-3,4-dihydroxyphenyl)-2-(hydroxyimino)acetyl)azetidin-3-yl)thio)-7-oxo-4-thia-1-azabicyclo[3.2.0]heptane-3-carboxylic acid], the values for the MIC in assay [1], in assay [2] and in assay [3] were not above 0.0625 µg/mL, 8 µg/mL (≈ 10.8 µM) and 16 µg/mL (≈ 21.5 µM), respectively.

On to `CO[C@@H](CNC(=O)C(=O)c1ccc(O)c(O)c1Cl)CS[C@]1(C(=O)O)CN2C(=O)[C@@H](NC(=O)/C(=N\OC(C)(C)C(=O)O)c3csc(N)n3)C2S1` (stereo partly drawn) [Example 6, (3R,5R,6R)-6-((Z)-2-(2-aminothiazol-4-yl)-2-(((2-carboxypropane-2-yl)oxy)imino)acetamide)-3-(((S)-3-(2-(2-chloro-3,4-dihydroxyphenyl)-2-oxoacetamide)-2-methoxypropyl)thio)-7-oxo-4-thia-1-azabicyclo[3.2.0]heptane-3-carboxylic acid], for which the MIC in assay [1] was found to be 0.25 µg/mL (≈ 0.328 µM); in assay [2] it was 4 µg/mL (≈ 5.25 µM); in assay [3], 2 µg/mL (≈ 2.63 µM).

Take `CC(C)(O/N=C(\C(=O)N[C@@H]1C(=O)N2C[C@](SCCNC(=O)/C(=N\N)c3ccc(O)c(O)c3Cl)(C(=O)O)S[C@H]12)c1csc(N)n1)C(=O)O` [Example 26, (3R,5R,6R)-6-((Z)-2-(2-aminothiazol-4-yl)-2-(((2-carboxypropan-2-yl)oxy)imino)acetamide)-3-((2-((Z)-2-(2-chloro-3,4-dihydroxyphenyl)-2-hydrazinylideneacetamide)ethyl)thio)-7-oxo-4-thia-1-azabicyclo[3.2.0]heptane-3-carboxylic acid]: in assay [1], the “MIC Pseudomonas aeruginosa strain ATCC 27853” value turned out to be 0.5 µg/mL (≈ 0.684 µM). Moreover, the “MIC Pseudomonas aeruginosa strain S-3028” value in assay [2] stood at 8 µg/mL (≈ 10.9 µM). Further, the “MIC Pseudomonas aeruginosa strain S-2838” value in assay [3] turned out to be 1 µg/mL (≈ 1.37 µM).

In the case of `CO[C@@H](CNC(=O)/C(=N/NC(N)=O)c1ccc(O)c(O)c1Cl)CS[C@]1(C(=O)O)CN2C(=O)[C@@H](NC(=O)/C(=N\OC(C)(C)C(=O)O)c3csc(N)n3)[C@H]2S1` [Example 16, (3R,5R,6R)-6-((Z)-2-(2-aminothiazole-4-yl)-2-(((2-carboxypropan-2-yl)oxy)imino)acetamide)-3-(((S)-3-((E)-2-(2-carbamoylhydrazono)-2-(2-chloro-3,4-dihydroxyphenyl)acetamide)-2-methoxypropyl)thio)-7-oxo-4-thia-1-azabicyclo[3.2.0]heptane-3-carboxylic acid], the MIC in assay [1] is 0.5 µg/mL (≈ 0.611 µM); in assay [2], 16 µg/mL (≈ 19.6 µM); in assay [3] it was 8 µg/mL (≈ 9.78 µM).

Regarding `CC(C)(O/N=C(\C(=O)N[C@@H]1C(=O)N2C[C@](SCCNNC(=O)c3ccc(O)c(O)c3Cl)(C(=O)O)S[C@H]12)c1csc(N)n1)C(=O)O` [Example 28, (3R,5R,6R)-6-((Z)-2-(2-aminothiazol-4-yl)-2-(((2-carboxypropan-2-yl)oxy)imino)acetamide)-3-((2-(2-(2-chloro-3,4-dihydroxybenzoyl)hydradienyl)ethyl)thio)-7-oxo-4-thia-1-azabicyclo[3.2.0]heptane-3-carboxylic acid], the “MIC Pseudomonas aeruginosa strain ATCC 27853” value in assay [1] came to 1 µg/mL (≈ 1.42 µM). Moreover, in assay [2], the “MIC Pseudomonas aeruginosa strain S-3028” value is 1 µg/mL (≈ 1.42 µM). Moreover, in assay [3], the “MIC Pseudomonas aeruginosa strain S-2838” value turned out to be 1 µg/mL (≈ 1.42 µM).

With `COC[C@H](CS[C@]1(C(=O)O)CN2C(=O)[C@@H](NC(=O)/C(=N\OC(C)(C)C(=O)O)c3csc(N)n3)C2S1)NC(=O)c1ccc(O)c(O)c1Cl` (stereo partly drawn) [Example 19, (3R,5R,6R)-6-((Z)-2-(2-aminothiazol-4-yl)-2-(((2-carboxypropan-2-yl)oxy)imino)acetamide)-3-(((R)-2-(2-chloro-3,4-dihydroxybenzamide)-3-methoxypropyl)thio)-7-oxo-4-thia-1-azabicyclo[3.2.0]heptane-3-carboxylic acid], the MIC turned out to be 0.125 µg/mL (≈ 0.17 µM) in assay [1], 1 µg/mL (≈ 1.36 µM) in assay [2] and 1 µg/mL (≈ 1.36 µM) in assay [3].

Take `CN(CCS[C@]1(C(=O)O)CN2C(=O)[C@@H](NC(=O)/C(=N\OC(C)(C)C(=O)O)c3csc(N)n3)[C@H]2S1)C(=O)c1ccc(O)c(O)c1Cl` [Example 25, (3R,5R,6R)-6-((Z)-2-(2-aminothiazol-4-yl)-2-(((2-carboxypropan-2-yl)oxy)imino)acetamide)-3-((2-(2-chloro-3,4-dihydroxy-N-methylbenzamide)ethyl)thio)-7-oxo-4-thia-1-azabicyclo[3.2.0]heptane-3-carboxylic acid]: the MIC stood at 1 µg/mL (≈ 1.42 µM) in assay [1], 2 µg/mL (≈ 2.84 µM) in assay [2] and 1 µg/mL (≈ 1.42 µM) in assay [3].

Turning to `CC(C)(O/N=C(\C(=O)N[C@@H]1C(=O)N2C[C@](SCCNC(=O)/C(=N\O)c3ccc(O)c(O)c3Cl)(C(=O)O)S[C@H]12)c1csc(N)n1)C(=O)O` [Example 4, (3R,5R,6R)-6-((Z)-2-(2-aminothiazol-4-yl)-2-(((2-carboxypropan-2-yl)oxy)imino)acetamide)-3-((2-((Z)-2-(2-chloro-3,4-dihydroxyphenyl)-2-(hydroxyimino)acetamide)ethyl)thio)-7-oxo-4-thia-1-azabicyclo[3.2.0]heptane-3-carboxylic acid], the “MIC Pseudomonas aeruginosa strain ATCC 27853” value in assay [1] is not above 0.0625 µg/mL. In addition, the “MIC Pseudomonas aeruginosa strain S-3028” value in assay [2] was 8 µg/mL (≈ 10.9 µM). Further, in assay [3], the “MIC Pseudomonas aeruginosa strain S-2838” value is 32 µg/mL (≈ 43.7 µM).

As to `CC(C)(O/N=C(\C(=O)N[C@@H]1C(=O)N2C[C@](SC3CN(C(=O)C(=NNC(N)=O)c4ccc(O)c(O)c4Cl)C3)(C(=O)O)S[C@H]12)c1csc(N)n1)C(=O)O` [Example 11, (3R,5R,6R)-6-((Z)-2-(2-aminothiazol-4-yl)-2-(((2-carboxypropan-2-yl)oxy)imino)acetamide)-3-((1-((Z)-2-(2-carbamoylhydrazono)-2-(2-chloro-3,4-dihydroxyphenyl)acetyl)azetidin-3-yl)thio)-7-oxo-4-thia-1-azabicyclo[3.2.0]heptane-3-carboxylic acid], the MIC was not above 0.0625 µg/mL in assay [1], 1 µg/mL (≈ 1.27 µM) in assay [2] and 2 µg/mL (≈ 2.54 µM) in assay [3].
